This note sets out measurements from patent US20100003332A1, “Process For Preparing Powder Comprising Nanoparticles of Sparingly Soluble Drug” (Amorepacific Corporation, priority 2006, published 2010).

Where two headings read alike, the source gives them in different places.

Series [1] is described as follows: Particle size of tacrolimus in redispersed powder with and without ultrasonic irradiation, laser scattering particle size analyzer. Conditions: lactose. Type of series: physicochemical. Here is the method: 0.01 g of each of the powders thus obtained was redispersed using an ultrasonic irradiation (frequency: 39 kHz). The particle of the tacrolimus was measured by using a laser scattering particle size analyzer (LA0910, Horiba) for each of the test solution with and without the ultrasonic irradiation, and the results are shown in Table 4.

A short description of series [2]: Bioavailability test: blood drug concentration after oral administration of suspensions to rats. Conditions: rat, suspension in distilled water, male rats fasted for 12 hours. Type of series: in vivo. How it is done:
In order to investigate the bioavailability of the powder according to the present invention, cilostazol powder prepared in Example 6 and unprocessed cilostazole as a control group (average particle size: 3 to 5 μm, Dongwoo Co., Ltd.) were suspended in distilled water, respectively. The suspensions having equivalent amounts of cilostazole were each orally administered to three male rats fasted for 12 hours. Blood samples were taken from the ophthalmic vein of the rats immediately after the administration, and 0.5, 1, 2, 4 and 7 hours after the administration to determined the blood drug concentration changes with time. Also the maximum blood concentration (Cmax, μg/ml) and the area under the blood drug concentration-time curve (AUC, μg*hr/ml) were calculated, and the results are shown in Table 8.

How the values of series [3] were obtained:
0.15 g of naproxen (TCI Chem) having an average particle size of 3 to 10 μm, 0.15 g of lactose and 0.03 g of hydroxypropy cellulose (HPC) were added to 3.4 ml of a saturated aqueous solution of lactose, and the mixture was wet ground using an oscillating mill at the room temperature for 30 minutes. The slurry mixture thus obtained was centrifuged at 4° C., 15,000 rpm for 30 minutes, and the residue in the bottom layer was vacuum dried for 24 hours to obtain a powder.
In the above process, the averaged particle size of naproxen particles was measured for 1) a test solution obtained by redispering 0.02 ml of the slurry mixture obtained after wet grinding in 10 ml of distilled water, and 2) an another test solution obtained by redispersing 0.01 g of the dried powder in 8 ml of distilled water, by using a laser scattering particle size analyzer (LA-910, Horiba). The redispersion was conducted by shaking the mixture with a hand.
Additional powders were prepared by repeating the above-mentioned procedure except for using sucrose, mannitol, trehalose, sorbitol and xylitol, respectively, instead of lactose, and naproxen particle sizes were measured by the same procedure.

A short description of series [4]: Particle size of cilostazol (lactose/SLS ratio) after redispersion of slurry or dried powder in distilled water, laser scattering particle size analyzer. It counts as physicochemical. Here is the method: 0.45 g of cilostazol (Dongwoo Co., Ltd.) and 0.15 g of hydroxypropyl cellulose were added to 5.1 ml of the saturated aqueous solution of lactose. […] The slurry mixture thus obtained was high-pressure filtered (pressure: 640 mmHg) using a sound pressure and freeze dried for 1 day to obtain powders.

Assay in series [5]: as above
It counts as physicochemical. To be noted: Lactose 225 g, SLS 225 g.

Series [6] can be described thus: Particle size of active ingredient (cilostazol, fenofibrate, itraconazole) powders redispersed in distilled water, laser scattering particle size analyzer. Type of series: physicochemical. Conditions: powder redispersed in aqueous solution, surface stabilizer HPC, dispersion agent SUCROSE. How it is done:
1.2 g of each of the active ingredient, 0.2 g of hydroxypropyl cellulose and 1.2 g of sucrose were added to 6.1 g of distilled water containing a saturated solution of sucrose, an appropriate amount of zirconia bead having the average particle size of 1 mm were added thereto, and the mixture was roll ground at a rate of 108 rpm for 5 days. The slurry mixture thus obtained was screened to remove the beads, and the residue was high-pressure filtered (pressure: 640 mmHg) using the sound pressure, followed by vacuum drying to obtain powders.

The mark [7] stands for this setting: HPC, amount of lactose 20% by weight of active ingredient.
Where [8] appears, read: HPC, amount of lactose 60% by weight of active ingredient.
Setting [9] is: HPC, amount of lactose 100% by weight of active ingredient.
Where [10] appears, read: HPC, amount of lactose 140% by weight of active ingredient.
Where [11] appears, read: HPC, amount of lactose 180% by weight of active ingredient.
The mark [12] stands for this setting: dispersion agent Lactose, surface stabilizer PVP 10,000.
Setting [13] is: dispersion agent Lactose, surface stabilizer PVP 29,000.
Setting [14] is: dispersion agent Lactose, surface stabilizer PVP 55,000.
[15] abbreviates: dispersion agent Lactose, surface stabilizer PVP 130,000.
Setting [16] is: dried powder redispersed in distilled water, surface stabilizer HPC, dispersion agent Lactose.
[17] abbreviates: dried powder redispersed, HPC, dispersion agent Mannitol.
The mark [18] stands for this setting: dried powder redispersed, HPC, dispersion agent Sorbitol.
Setting [19] is: dried powder redispersed, HPC, dispersion agent Sucrose.
Where [20] appears, read: dried powder redispersed, HPC, dispersion agent Trehalose.
Where [21] appears, read: dried powder redispersed, HPC, dispersion agent Xylitol.
The mark [22] stands for this setting: drying powder redispersed, Lactose 90 g, SLS 360 g.
The mark [23] stands for this setting: drying powder redispersed, Lactose 360 g, SLS 90 g.
The mark [24] stands for this setting: slurry mixture redispersed after wet grinding, Lactose 90 g, SLS 360 g.
Where [25] appears, read: slurry mixture redispersed after wet grinding, Lactose 225 g, SLS 225 g.
Setting [26] is: slurry mixture redispersed after wet grinding, Lactose 360 g, SLS 90 g.

For `C=CC[C@@H]1/C=C(\C)C[C@H](C)C[C@H](OC)[C@H]2O[C@@](O)(C(=O)C(=O)N3CCCC[C@H]3C(=O)O[C@H](/C(C)=C/[C@@H]3CC[C@@H](O)[C@H](OC)C3)[C@H](C)[C@@H](O)CC1=O)[C@H](C)C[C@@H]2OC` [tacrolimus], the “Particle size according to the ultrasonic irradiation time” value in series [1] (surface stabilizer Hydroxyproply cellulose, 0 minute ultrasonic irradiation) is listed as 4,980 nm; in series [1] (surface stabilizer Hydroxyproply cellulose, 1 minute ultrasonic irradiation (39 kHz)), 220 nm; in series [1] (surface stabilizer Poloxamer 407, 0 minute ultrasonic irradiation), 510 nm; in series [1] (surface stabilizer Poloxamer 407, 1 minute ultrasonic irradiation (39 kHz)), 420 nm; in series [1] (surface stabilizer Polyvinylpyrrolidone, 0 minute ultrasonic irradiation), 1,561 nm; in series [1] (surface stabilizer Polyvinylpyrrolidone, 1 minute ultrasonic irradiation (39 kHz)) it was 610 nm.
As to `O=C1CCc2cc(OCCCCc3nnnn3C3CCCCC3)ccc2N1` [Cilostazol raw material, cilostazol], in series [2] (read-out: Cmax (maximum blood concentration)), the Cmax came out at 150 ± 80 ng/mL. In series [2] (samples to 7 hours, read-out: AUC (area under the blood drug concentration-time curve)), the AUC is 580 ± 90 ng·h/mL.
As for `COc1ccc2cc([C@H](C)C(=O)O)ccc2c1` [Naproxen, naproxen], the Average particle size in series [3] (setting [7]) was 3,025 nm; in series [3] (setting [8]), 500 nm; in series [3] (setting [9]) it was 164 nm; in series [3] (setting [10]), 391 nm; in series [3] (setting [11]), 208 nm; in series [3] (setting [12]) it was 16,800 nm. Moreover, the Average particle size in series [3] (setting [13]) is given as 156.9 nm; in series [3] (setting [14]), 192.4 nm; in series [3] (setting [15]), 275.8 nm; in series [3] (setting [16]), 164.1 nm; in series [3] (dried powder redispersed in distilled water, surface stabilizer HPC, dispersion agent Lactose, listed as naproxen), “about 164 nm”; in series [3] (setting [17]), 450 nm. Moreover, the Average particle size is 413.6 nm in series [3] (setting [18]), 297.1 nm in series [3] (setting [19]), 241.6 nm in series [3] (setting [20]) and 637.9 nm in series [3] (setting [21]). Besides, the “Particle Size (D10~D90)” value is on record as 154~4,292 nm in series [3] (setting [7]); 339~629 nm in series [3] (setting [8]); 40~260 nm in series [3] (setting [9]); 109~316 nm in series [3] (setting [10]); 108~310 nm in series [3] (setting [11]); 868.3~507.1 nm in series [3] (setting [12]). Moreover, the “Particle Size (D10~D90)” value in series [3] (setting [13]) is on record as 95.9~208.7 nm; in series [3] (setting [14]), 120.8~250.3 nm; in series [3] (setting [15]) it was 150.6~417.5 nm; in series [3] (setting [16]), 40.3~259.6 nm; in series [3] (setting [17]), 319.8~564.6 nm; in series [3] (setting [18]), 280.4~532.7 nm. For the same compound, the “Particle Size (D10~D90)” value is reported as 192.9~393.9 nm in series [3] (setting [19]), 162.8~312.5 nm in series [3] (setting [20]) and 291.3~675.9 nm in series [3] (setting [21]). In series [3] (slurry mixture after wet grinding redispersed in distilled water, HPC, lactose), the “average particle size of naproxen particles” value is “about 133 nm”.
With `O=C1CCc2cc(OCCCCc3nnnn3C3CCCCC3)ccc2N1` [Cilostazol, cilostazol], the Average particle size in series [4] (setting [22]) stood at 350 nm; in series [4] (drying powder redispersed, Lactose 225 g, SLS 225 g) it was 360 nm; in series [4] (setting [23]), 200 nm; in series [4] (setting [24]), 340 nm; in series [4] (setting [25]), 340 nm; in series [4] (setting [26]), 190 nm. Further, in series [6], the Average particle size is listed as 170 nm. In addition, the Particle size range D10 in series [4] (setting [22]) came to 230 nm; in series [4] (setting [23]), 150 nm; in series [4] (setting [24]) it was 230 nm; in series [4] (setting [25]), 230 nm; in series [4] (setting [26]), 140 nm; in series [5] (drying powder redispersed) it was 240 nm. Besides, the Particle size range D50 in series [4] (setting [22]) was 340 nm; in series [4] (setting [23]), 200 nm; in series [4] (setting [24]), 340 nm; in series [4] (setting [26]), 180 nm; in series [5] (drying powder redispersed) it was 350 nm; in series [5] (slurry mixture redispersed after wet grinding) it was 330 nm. The Particle size range D90 in series [4] (setting [22]) came out at 390 nm; in series [4] (setting [23]), 270 nm; in series [4] (setting [24]) it was 470 nm; in series [4] (setting [25]) it was 470 nm; in series [4] (setting [26]), 250 nm; in series [5] (drying powder redispersed), 490 nm. For the same compound, the “Range of particle size” value in series [6] (in nm) is given as 120~228.
